In US20250333699A1, “METHOD FOR PREPARATION OF CYTOTOXIC T LYMPHOCYTES WITH BROAD TUMOUR-SPECIFIC REACTIVITY AND CHARACTERISTICS OF EARLY DIFFERENTIATION CELLS” (priority 2021, published 2025):

Tested on: MAGE antigens
Assay: Expression of MAGE antigens by RT-PCR (Q-PCR) in CD3/CD28-activated lymphocytes
Type: cell-based, human
Conditions: 10 μM for 2 days in the presence of IL-2 (150 IU/ml); FIG. 3
Experimental: Expression of MAGE antigens was determined as follows. The frozen pellets of cells were thawed, and total RNA was isolated from lymphocytes using the NucleoSpin RNA Plus kit (Macherey-Nagel), and reverse transcribed using SuperScript™ IV VILO™ Master Mix with ezDNase™ Enzyme (Invitrogen) and random hexamers and oligo(dT24) primers. cDNA was amplified in a LightCycler Nano (Roche) using the FastStart Essential DNA Green Master mix (Roche) and previously described primers and conditions (Weinert et al., 2009), except primers for MAGE-A4, provided by RealTimePrimers.com. The data were normalized to GAPDH expression.
The cell suspension was transferred to a 50 ml tube, and the cell concentration was determined. At this stage the culture contains only activated lymphocytes, and upon counting in a Moxi cell counter appear as a single peak of cells with an average size of 10-11 μm. 2×10^7 cells (or all cells) were set for centrifugation. […]
5-Aza-CdR-treated cultures were harvested and centrifuged. […] After this, cells were counted, and 10×10^6 cells were mixed with 10×10^6 thawed lymphocytes, and after centrifugation, resuspended in 20 ml of lymphocyte medium and transferred to a T75 tissue culture flask, side position. […]

`Nc1ncn([C@H]2C[C@H](O)[C@@H](CO)O2)c(=O)n1` [5-aza-CdR, 5-aza-2′-deoxycytidine] was tested. Which “expression of selected CT antigens of the MAGE family” value did it give?
The value was “Robust and consistent expression”.
